| melting point | SMILES |
| --- | --- |
| 125.2 to 125.5 °C | COc1ccc(CC(=O)Nc2cc3c(cc2[N+](=O)[O-])OC(C)(C)[C@H](O)[C@H]3OCCc2ccccc2)cc1 [Synthesis example 6, Trans-3,4-dihydro-2,2-dimethyl-6-(4-methoxyphenyl)acetylamino-7-nitro-4-(2-phenylethoxy)-2H-1-benzoypyran-3-ol] |
| 117.8 to 119.1 °C | COc1ccc(CC(=O)Nc2cc3c(cc2[N+](=O)[O-])OC(C)(C)[C@H](O)[C@H]3OCc2ccccc2)cc1 [Synthesis example 8] |
| 178 to 178.6 °C | COc1ccc(CC(=O)Nc2cc3c(cc2[N+](=O)[O-])OC(C)(C)[C@H](O)[C@H]3Oc2ccccc2)cc1 (relative stereo) [Synthesis example 7, Trans-3,4-dihydro-2,2-dimethyl-6-(4-methoxyphenyl)acetylamino-7-nitro-4-phenyloxy-2H-1-benzopyran-3-ol] |
| 115 to 116 °C | CCCO[C@H]1c2cc(NC(=O)Cc3ccc(OC)cc3)c([N+](=O)[O-])cc2OC(C)(C)[C@@H]1O (relative stereo) [Synthesis example 4, (3R*, 4S*)-3,4-dihydro-2,2-dimethyl-4-propoxy-6-(4-methoxyphenylacetylamino)-7-nitro-2H-1-benzopyran-3-ol] |
